Source: US10072001B2, “Tank-binding kinase inhibitor compounds” (Gilead Sciences, Inc., priority 2014, dated 2018)

Experiments:
IKKε = IKKε (Homo sapiens (Human), UniProt Q14164); test: TR-FRET kinase assay, IKKε; type: biochemical; conditions: full length recombinant IKKε 0.3 nM, 2x Km ATP, 1 μM peptide, 240 min at 25° C.; geometric mean of minimum four determinations
Excerpt: Biological Assay for TBK1 and IKKs:

TBK1 = TBK1 (Homo sapiens (Human), UniProt Q9UHD2); test: TR-FRET kinase assay, TBK1; conditions: read-out: TBK1-IC50; full length recombinant TBK1 2.5 nM, 2x Km ATP, 1 μM peptide, 240 min at 25° C.; geometric mean of minimum four determinations
Sequence of TBK1 (Q9UHD2 whole entry): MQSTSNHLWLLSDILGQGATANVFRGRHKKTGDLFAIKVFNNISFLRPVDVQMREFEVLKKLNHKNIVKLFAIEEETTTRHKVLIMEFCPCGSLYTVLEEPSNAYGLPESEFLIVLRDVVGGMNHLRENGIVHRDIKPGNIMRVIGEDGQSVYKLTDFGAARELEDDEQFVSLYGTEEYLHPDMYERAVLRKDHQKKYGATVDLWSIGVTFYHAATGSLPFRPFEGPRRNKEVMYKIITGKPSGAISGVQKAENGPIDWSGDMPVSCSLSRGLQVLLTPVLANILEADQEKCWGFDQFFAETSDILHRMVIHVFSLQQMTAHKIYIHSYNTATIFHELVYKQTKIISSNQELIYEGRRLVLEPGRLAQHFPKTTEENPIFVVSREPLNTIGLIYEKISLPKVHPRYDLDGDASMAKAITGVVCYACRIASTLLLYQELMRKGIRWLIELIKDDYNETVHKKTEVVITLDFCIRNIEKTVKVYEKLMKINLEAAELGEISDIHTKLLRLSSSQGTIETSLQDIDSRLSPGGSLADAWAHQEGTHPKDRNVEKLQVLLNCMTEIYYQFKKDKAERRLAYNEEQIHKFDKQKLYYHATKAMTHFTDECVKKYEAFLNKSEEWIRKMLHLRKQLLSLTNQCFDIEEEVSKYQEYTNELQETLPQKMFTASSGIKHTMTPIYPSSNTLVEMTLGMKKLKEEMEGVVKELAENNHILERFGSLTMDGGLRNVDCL

Sequence of IKKε (Q14164 whole entry): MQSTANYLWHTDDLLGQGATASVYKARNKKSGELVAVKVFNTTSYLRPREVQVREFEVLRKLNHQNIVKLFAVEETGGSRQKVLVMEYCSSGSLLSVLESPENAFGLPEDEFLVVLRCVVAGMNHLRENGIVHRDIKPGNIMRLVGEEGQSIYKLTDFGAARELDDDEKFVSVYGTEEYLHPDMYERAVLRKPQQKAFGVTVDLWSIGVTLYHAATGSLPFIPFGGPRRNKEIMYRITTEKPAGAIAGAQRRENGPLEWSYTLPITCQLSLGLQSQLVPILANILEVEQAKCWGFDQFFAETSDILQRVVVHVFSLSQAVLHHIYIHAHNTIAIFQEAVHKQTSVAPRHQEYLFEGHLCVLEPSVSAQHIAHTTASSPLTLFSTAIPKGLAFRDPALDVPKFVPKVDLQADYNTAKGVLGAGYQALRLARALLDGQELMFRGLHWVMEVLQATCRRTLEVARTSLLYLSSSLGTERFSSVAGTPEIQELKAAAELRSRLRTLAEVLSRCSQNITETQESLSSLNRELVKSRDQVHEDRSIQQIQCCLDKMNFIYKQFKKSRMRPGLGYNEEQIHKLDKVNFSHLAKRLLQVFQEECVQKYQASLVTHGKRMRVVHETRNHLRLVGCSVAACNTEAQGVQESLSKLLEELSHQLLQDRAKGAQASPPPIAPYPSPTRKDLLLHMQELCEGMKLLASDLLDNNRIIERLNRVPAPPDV

IC50 (IKKε) [nM]	IC50 (TBK1) [nM]	SMILES
103	9.27	N#Cc1cc(-c2ccnc3[nH]c(-c4ccc(N5CCOCC5)cc4)cc23)ccc1OC1COC1 [Example 235, 5-(2-(4-morpholinophenyl)-1H-pyrrolo[2,3-b]pyridin-4-yl)-2-(oxetan-3-yloxy)benzonitrile]
358	59.3	CC(C)Oc1ccc(-c2ccnc3[nH]c(-c4ccc(N5CCOCC5)cc4)cc23)cc1C#N [Example 71, 2-isopropoxy-5-(2-(4-morpholinophenyl)-1H-pyrrolo[2,3-b]pyridin-4-yl)benzonitrile]
32.2	32	N#Cc1cc(-c2ccnc3[nH]c(-c4ccc5[nH]ccc5c4)cc23)ccc1OC1CCOCC1 [Example 45, 5-(2-(1H-indol-5-yl)-1H-pyrrolo[2,3-b]pyridin-4-yl)-2-((tetrahydro-2H-pyran-4-yl)oxy)benzonitrile]
9.86	2.25	N#Cc1cc(-c2ncnc3[nH]c(-c4ccc(N5CCOCC5)cc4)nc23)ccc1OC1CCN(C=O)CC1 [Example 250, 2-((1-formylpiperidin-4-yl)oxy)-5-(8-(4-morpholinophenyl)-9H-purin-6-yl)benzonitrile]
95.1	56.1	N#Cc1cc(-c2ncnc3[nH]c(-c4ccc(N5CCOCC5)cc4)cc23)ccc1OC1CC2(COC2)C1 [Example 164, 2-(2-Oxaspiro[3.3]heptan-6-yloxy)-5-(6-(4-morpholinophenyl)-7H-pyrrolo[2,3-d]pyrimidin-4-yl)benzonitrile]
151	35.8	N#Cc1cc(-c2ncnc3[nH]c(-c4ccc(N5CCOCC5)c(F)c4)nc23)ccc1OC1CCNCC1 [Example 244, 5-(8-(3-fluoro-4-morpholinophenyl)-9H-purin-6-yl)-2-(piperidin-4-yloxy)benzonitrile]
64.4	6.17	COc1cc(-c2cc3c(-c4ccc(O[C@H]5CCNC[C@H]5F)c(C#N)c4)ncnc3[nH]2)ccc1N1CCN(C2COC2)CC1 [Example 144, 2-(((3R,4S)-3-fluoropiperidin-4-yl)oxy)-5-(6-(3-methoxy-4-(4-(oxetan-3-yl)piperazin-1-yl)phenyl)-7H-pyrrolo[2,3-d]pyrimidin-4-yl)benzonitrile]
18.9	2.63	N#Cc1cc(-c2ncnc3[nH]c(-c4cccc(N5CCOCC5)c4)cc23)ccc1OC1CCOCC1 [Example 103, 5-(6-(3-morpholinophenyl)-7H-pyrrolo[2,3-d]pyrimidin-4-yl)-2-((tetrahydro-2H-pyran-4-yl)oxy)benzonitrile]
21.3	44.2	Cn1cc(-c2nc3c(-c4ccc(OC5CCOCC5)c(C#N)c4)ccnc3[nH]2)cn1 [Example 307, 5-(2-(1-methyl-1H-pyrazol-4-yl)-3H-imidazo[4,5-b]pyridin-7-yl)-2-((tetrahydro-2H-pyran-4-yl)oxy)benzonitrile]
1000	1000	O=C1NCc2cc(-c3cc4c(-c5ccc6c(c5)CNC6=O)ncnc4[nH]3)ccc21 [Example 224, 5,5′-(7H-pyrrolo[2,3-d]pyrimidine-4,6-diyl)bis(isoindolin-1-one)]
1000	275	CS(=O)(=O)c1ccc(-c2ccnc3[nH]c(-c4ccc(N5CCOCC5)cc4)cc23)cc1C#N [Example 192, 2-(methylsulfonyl)-5-(2-(4-morpholinophenyl)-1H-pyrrolo[2,3-b]pyridin-4-yl)benzonitrile]
135	70.7	CN(C)CC(=O)N1CC[C@@H](Oc2ccc(-c3ccnc4[nH]c(-c5ccc(N6CCOCC6)cc5)cc34)cc2C#N)C1 [Example 30, (R)-2-((1-(2-(dimethylamino)acetyl)pyrrolidin-3-yl)oxy)-5-(2-(4-morpholinophenyl)-1H-pyrrolo[2,3-b]pyridin-4-yl)benzonitrile]
146	32.4	N#Cc1cc(-c2ccnc3[nH]c(-c4ccc(N5CCOCC5)cc4)cc23)ccc1OC1CN(C(=O)CO)C1 [Example 154, 2-((1-(2-hydroxyacetyl)azetidin-3-yl)oxy)-5-(2-(4-morpholinophenyl)-1H-pyrrolo[2,3-b]pyridin-4-yl)benzonitrile]
11.1	7.98	CNC(=O)c1cccc(-c2cc3c(-c4ccc(OC5CCOCC5)c(C#N)c4)ccnc3[nH]2)c1 [Example 40, 3-(4-(3-cyano-4-((tetrahydro-2H-pyran-4-yl)oxy)phenyl)-1H-pyrrolo[2,3-b]pyridin-2-yl)-N-methylbenzamide]
18.4	11.2	C=C(C)c1ccc(-c2cc3c(-c4ccc(O[C@@H]5CCN(C(=O)CO)C5)c(C#N)c4)ccnc3[nH]2)cc1 [Example 150, (R)-2-((1-(2-hydroxyacetyl)pyrrolidin-3-yl)oxy)-5-(2-(4-(prop-1-en-2-yl)phenyl)-1H-pyrrolo[2,3-b]pyridin-4-yl)benzonitrile]
> 1000	79.7	Cc1ccc(-c2ccnc3[nH]c(-c4ccc(N5CCOCC5)cc4)cc23)cc1C#N [Example 69, 2-methyl-5-(2-(4-morpholinophenyl)-1H-pyrrolo[2,3-b]pyridin-4-yl)benzonitrile]
1000	69.1	N#Cc1cc(-c2ncnc3[nH]c(-c4cccc(N5CCOCC5)c4)cc23)ccc1CN1CCOCC1 [Example 113, 2-(morpholinomethyl)-5-(6-(3-morpholinophenyl)-7H-pyrrolo[2,3-d]pyrimidin-4-yl)benzonitrile]
2.33	1.32	N#Cc1cc(-c2ncnc3[nH]c(-c4ccc(C(=O)N5CCOCC5)cc4)cc23)ccc1OC1CCN(C(=O)CO)CC1 [Example 160, 2-((1-(2-Hydroxyacetyl)piperidin-4-yl)oxy)-5-(6-(4-(morpholine-4-carbonyl)phenyl)-7H-pyrrolo[2,3-d]pyrimidin-4-yl)benzonitrile]
16.8	11.3	CN1CCN(c2ccc(-c3nc4c(-c5ccc(OC6CCNCC6)c(C#N)c5)ncnc4[nH]3)cc2)CC1 [Example 247, 5-(8-(4-(4-methylpiperazin-1-yl)phenyl)-9H-purin-6-yl)-2-(piperidin-4-yloxy)benzonitrile]
19.8	> 1000	N#Cc1cc(-c2ccnc3[nH]c(-c4ccccc4)cc23)ccc1OC1CCOCC1 [Example 83, 5-(2-phenyl-1H-pyrrolo[2,3-b]pyridin-4-yl)-2-((tetrahydro-2H-pyran-4-yl)oxy)benzonitrile]
38	10.9	N#Cc1cc(-c2ccnc3[nH]c(-c4ccc(N5CCOCC5)c(F)c4)cc23)ccc1OC1CCOCC1 [Example 77, 5-(2-(3-fluoro-4-morpholinophenyl)-1H-pyrrolo[2,3-b]pyridin-4-yl)-2-((tetrahydro-2H-pyran-4-yl)oxy)benzonitrile]
306	115	CC(C)(C)OC(=O)N1CC[C@H](Oc2ccc(-c3ccnc4[nH]c(-c5ccc(N6CCOCC6)cc5)cc34)cc2C#N)C1 [Example 25, (S)-tert-butyl 3-(2-cyano-4-(2-(4-morpholinophenyl)-1H-pyrrolo[2,3-b]pyridin-4-yl)phenoxy)pyrrolidine-1-carboxylate]
18.4	5.96	N#Cc1cc(-c2ccnc3[nH]c(-c4ccc(N5CCOCC5)cc4)cc23)ccc1OC1CCN(C(=O)CN)CC1 [Example 152, 2-((1-(2-aminoacetyl)piperidin-4-yl)oxy)-5-(2-(4-morpholinophenyl)-1H-pyrrolo[2,3-b]pyridin-4-yl)benzonitrile]
12.9	6.4	N#Cc1cc(-c2ncnc3[nH]c(-c4ccc(C5CCN(CC(F)F)CC5)cc4)nc23)ccc1OC1CCN(C=O)CC1 [Example 258, 5-(8-(4-(1-(2,2-difluoroethyl)piperidin-4-yl)phenyl)-9H-purin-6-yl)-2-((1-formylpiperidin-4-yl)oxy)benzonitrile]
0.687	0.763	COc1cc(-c2cc3c(-c4ccc(OC5CCN(C(=O)CO)CC5(F)F)c(C#N)c4)ncnc3[nH]2)ccc1N1CCN(C2COC2)CC1 (stereo not drawn) [Example 141, 2-((3,3-difluoro-1-(2-hydroxyacetyl)piperidin-4-yl)oxy)-5-(6-(3-methoxy-4-(4-(oxetan-3-yl)piperazin-1-yl)phenyl)-7H-pyrrolo[2,3-d]pyrimidin-4-yl)benzonitrile]
8.3	6.35	N#Cc1cc(-c2c(F)cnc3[nH]c(-c4ccc(OCCN5CCCC5)cc4)cc23)ccc1OC1CCOCC1 [Example 174, 5-(5-fluoro-2-(4-(2-(pyrrolidin-1-yl)ethoxy)phenyl)-1H-pyrrolo[2,3-b]pyridin-4-yl)-2-((tetrahydro-2H-pyran-4-yl)oxy)benzonitrile]
> 1000	434	N#Cc1cc(-c2ccnc3[nH]c(C4=CC5CCC4C5)cc23)ccc1OC1CCOCC1 (stereo not drawn) [Example 43, 5-(2-(bicyclo[2.2.1]hept-2-en-2-yl)-1H-pyrrolo[2,3-b]pyridin-4-yl)-2-((tetrahydro-2H-pyran-4-yl)oxy)benzonitrile]
10.6	5.43	COc1ccc(-c2cc3c(-c4ccc(OC5CCN(C(=O)CO)CC5)c(C#N)c4)ncnc3[nH]2)cn1 [Example 130, 2-((1-(2-hydroxyacetyl)piperidin-4-yl)oxy)-5-(6-(6-methoxypyridin-3-yl)-7H-pyrrolo[2,3-d]pyrimidin-4-yl)benzonitrile]

SMILES	IC50 (IKKε) [nM]	IC50 (TBK1) [nM]
N#Cc1cc(-c2ncnc3[nH]c(-c4cccc(N5CCOCC5)c4)nc23)ccc1OC1CCOCC1 [Example 211, 5-(8-(3-morpholinophenyl)-9H-purin-6-yl)-2-((tetrahydro-2H-pyran-4-yl)oxy)benzonitrile]	25.3	9.57
CN1CCN(c2ccc(-c3nc4c(-c5ccc(OC6CCOCC6)c(C#N)c5)ncnc4[nH]3)cc2)CC1 [Example 212, 5-(8-(4-(4-methylpiperazin-1-yl)phenyl)-9H-purin-6-yl)-2-((tetrahydro-2H-pyran-4-yl)oxy)benzonitrile]	1.08	1.14
